Laboratory results from patent publication US20250100977A1, “MERCAPTOPYRIMIDINE COMPOUNDS THAT INHIBIT NONHOMOLOGOUS END JOINING AND METHODS THEREOF” (INDIAN INSTITUTE OF SCIENCE, priority 2021, published 2025).

Experiments:
Nalm6 = assay: Cytotoxicity (viable cells) in Nalm6; format: cell-based; settings: Homo sapiens, NALM-6; Table 1; 48 h; read-out: IC50 in cancer cell lines, Nalm6
Experimental: (§1) The compounds of the present invention were screened initially in leukemic and cervical cancer cell lines (Table 1). […] In cervical cancer cell line HeLa, IC50 was 5 and 2 μM, respectively for SCR116 and SCR132 (FIG. 5A-B).
(§2) Ligase IV specificity of the compounds of the present invention inside the cells were also determined using Ligase IV knock out (KO) cell line N114 compared to the wild type Nalm6 (Table 2, FIGS. 5C, D, E and F). […] Table 1 showing IC50 of SCR7 derivatives in cancer cell lines Nalm6 and HeLa. IC50 was calculated using GraphPad Prism software from the percentage of viable cells following treatment with the compounds at 48 h. Table 2 showing IC50 of SCR116 and SCR132 in a panel of 16 cancer cell lines.

HeLa = assay: Cytotoxicity (viable cells) in HeLa; format: cell-based; settings: Homo sapiens, HeLa, 48 h, Table 1; 48 h; read-out: IC50 in cancer cell lines, HeLa
Experimental: as §1, §2

Row | SMILES | IC50 (Nalm6) [µM] | IC50 (HeLa) [µM]
1 | CN(C)c1ccc(/C=N/c2c(N)nc(S)nc2O)cc1 [Compound 37, (E)-6-amino-5-((4-(dimethylamino)benzylidene)amino)-2-mercaptopyrimidin-4-ol] | 15.2 | 47.8
2 | Nc1nc(S)nc(O)c1/N=C/c1cc(F)c(O)c(F)c1 [Compound 41, (E)-6-amino-5-((3,5-difluoro-4-hydroxybenzylidene)amino)-2-mercaptopyrimidin-4-ol] | 28.8 | 29.2
3 | Nc1nc(S)nc(O)c1/N=C/c1nccs1 [Compound 13, (E)-6-amino-2-mercapto-5-((thiazol-2-ylmethylene)amino)pyrimidin-4-ol] | 25.6 | 133
4 | N#Cc1ccc(/C=N/c2c(N)nc(S)nc2O)cc1 [Compound 36, (E)-4-(((4-amino-6-hydroxy-2-mercaptopyrimidin-5yl)imino)methyl)benzonitrile] | 2.88 | 27.2
5 | Nc1nc(S)nc(O)c1/N=C/c1ccc2ccccc2n1 [Compound 38, (E)-6-amino-2-mercapto-5-((quinolin-2-ylmethylene)amino)pyrimidin-4-ol] | 25.5 | 45.8
6 | COc1cc(/C=N/c2c(N)nc(S)nc2O)ccc1O [Compound 39, (E)-6-amino-5-((4-hydroxy-3-methoxybenzylidene)amino)-2-mercaptopyrimidin-4-ol] | 33.6 | 43.2
7 | Nc1nc(S)nc(O)c1/N=C/c1cccc2ccccc12 [Compound 17, (E)-6-amino-2-mercapto-5-((naphthalen-1-ylmethylene)amino)pyrimidin-4-ol] | 29.7 | 29.5
8 | Nc1nc(S)nc(O)c1/N=C/c1ccc(Br)s1 [Compound 35, (E)-6-amino-5-(((5-bromothiophen-2-yl)methylene)amino)-2-mercaptopyrimidin-4-ol] | 6.87 | 18.4
9 | Nc1nc(S)nc(O)c1/N=C/c1ncc[nH]1 [Compound 04, (E)-5-(((1H-imidazol-2-yl)methylene)amino)-6-amino-2-mercaptopyrimidin-4-ol] | 29.7 | 95
10 | Nc1nc(S)nc(O)c1/N=C/c1cccs1 [Compound 01, (E)-6-amino-2-mercapto-5-((thiophen-2-ylmethylene)amino)pyrimidin-4-ol] | 23.3 | 17.7
11 | Nc1nc(S)nc(O)c1/N=C/c1ccncc1F [Compound 33, (E)-6-amino-5-(((3-fluoropyridin-4-yl)methylene)amino)-2-mercaptopyrimidin-4-ol] | 2.24 | 20.8
12 | Nc1nc(S)nc(O)c1/N=C/c1cccnc1 [Compound 07, (E)-6-amino-2-mercapto-5-((pyridin-3-ylmethylene)amino)pyrimidin-4-ol] | 26.6 | 28.2
13 | N#Cc1ccc(/C=N/c2c(N)nc(S)nc2O)s1 [Compound 34, (E)-5-(((4-amino-6-hydroxy-2-mercaptopyrimidin-5-yl)imino)methyl)thiophene-2-carbonitrile] | 0.95 | 41.4
14 | Nc1nc(S)nc(O)c1/N=C/c1cncc2ccccc12 [Compound 05, 6-amino-5-{[(E)-isoquinolin-4-ylmethylidene]amino}-2-mercaptopyrimidin-4-ol] | 18.2 | 11.9
